This is an account of results in ChEMBL document CHEMBL1128022, “Potent and selective inhibitors of gelatinase-A 2. carboxylic and phosphonic acid derivatives” (Bioorg Med Chem Lett, 1994).

One experiment deals with 72 kDa type IV collagenase (Homo sapiens, UniProt P08253). In words: Inhibition of the Gelatinase-A enzyme was determined from purified NSO cells.
Chain of 72 kDa type IV collagenase (P08253 whole entry): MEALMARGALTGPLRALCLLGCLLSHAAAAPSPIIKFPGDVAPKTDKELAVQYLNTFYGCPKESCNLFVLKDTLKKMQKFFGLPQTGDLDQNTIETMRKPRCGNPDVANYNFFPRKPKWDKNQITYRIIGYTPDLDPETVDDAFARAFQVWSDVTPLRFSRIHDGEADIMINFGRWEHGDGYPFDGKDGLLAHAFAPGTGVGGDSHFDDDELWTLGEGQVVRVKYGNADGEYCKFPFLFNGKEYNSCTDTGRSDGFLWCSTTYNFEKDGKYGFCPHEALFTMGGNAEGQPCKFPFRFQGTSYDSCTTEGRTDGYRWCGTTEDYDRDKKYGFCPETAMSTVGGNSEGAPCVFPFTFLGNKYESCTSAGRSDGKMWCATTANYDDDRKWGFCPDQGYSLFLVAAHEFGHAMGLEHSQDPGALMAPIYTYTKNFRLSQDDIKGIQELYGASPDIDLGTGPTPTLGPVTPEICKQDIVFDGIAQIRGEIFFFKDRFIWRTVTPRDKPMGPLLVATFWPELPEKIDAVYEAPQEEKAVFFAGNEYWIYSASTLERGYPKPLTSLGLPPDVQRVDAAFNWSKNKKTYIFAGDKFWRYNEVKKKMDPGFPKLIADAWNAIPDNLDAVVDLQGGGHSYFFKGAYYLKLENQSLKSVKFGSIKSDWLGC
Take `Cc1ccc(CCC[C@H](CC(=O)O)C(=O)N[C@@H](CC2CCCCC2)C(=O)NCCC(=O)O)cc1`: the Ki is 3.82 nM.

For `O=C(N[C@@H](CC1CCCCC1)C(=O)NCCN1CCOCC1)[C@H](CCCc1ccccc1)CP(=O)(O)O`, the inhibitory constant (Ki) is 812 nM.

`Cc1ccc(CCC[C@H](CC(=O)O)C(=O)N[C@@H](CC2CCCCC2)C(=O)NCCCCN2CCOCC2)cc1` gave an inhibitory constant (Ki) of 10.3 nM.

For the molecule `NC(=O)[C@H](CC1CCCCC1)NC(=O)[C@H](CCCc1ccccc1)CC(=O)O`, the Ki came to 123 nM.

The molecule `O=C(O)CCNC(=O)[C@H](CC1CCCCC1)NC(=O)[C@H](CCCc1ccccc1)CP(=O)(O)O` gave a Ki of 46.5 nM.

`Cc1ccc(CCC[C@H](CC(=O)O)C(=O)N[C@@H](CC2CCCCC2)C(=O)NCCc2ccccc2)cc1` had an inhibition constant (Ki) of 1 nM.

`COc1ccc(CCC[C@H](CC(=O)O)C(=O)N[C@@H](CC2CCCCC2)C(=O)NCCc2ccc(S(N)(=O)=O)cc2)cc1` came in with a Ki of 1.83 nM.

`NS(=O)(=O)c1ccc(CCNC(=O)[C@H](CC2CCCCC2)NC(=O)[C@H](CCCc2ccc(Cl)cc2)CC(=O)O)cc1` came in with a Ki of 1.03 nM.

Regarding `NS(=O)(=O)c1ccc(CCNC(=O)[C@H](CC2CCCCC2)NC(=O)[C@H](CCCc2ccccc2)CC(=O)O)cc1`, the affinity, expressed as Ki, was 6.4 nM.

Regarding `O=C(N[C@@H](CC1CCCCC1)C(=O)NCCc1ccccc1)[C@H](CCCc1ccccc1)CP(=O)(O)O`, the affinity corresponds to a Ki of 18.9 nM.

The molecule `COC(=O)CCNC(=O)[C@H](CC1CCCCC1)NC(=O)[C@H](CCCc1ccc(C)cc1)CC(=O)O` came in with a Ki of 1.17 nM.

Regarding `O=C(C[C@@H](CCCc1ccccc1)C(=O)N[C@@H](CC1CCCCC1)C(=O)NCCc1ccccc1)NO`, the Ki amounted to 0.06 nM.

For the molecule `NC(=O)CCCNC(=O)[C@H](CC1CCCCC1)NC(=O)[C@H](CCCc1ccccc1)CC(=O)O`, the affinity, expressed as Ki, was 3.06 nM.

On to `Cc1ccc(CCC[C@H](CC(=O)O)C(=O)N[C@@H](CC2CCCCC2)C(=O)NCCc2ccc(S(N)(=O)=O)cc2)cc1`, for which the affinity corresponds to a Ki of 0.9 nM.

As to `CC(C)Cc1ccc(CCC[C@H](CC(=O)O)C(=O)N[C@@H](CC2CCCCC2)C(=O)NCCc2ccccc2)cc1`, the Ki was 157 nM.

The molecule `Cc1ccc(CCC[C@H](CP(=O)(O)O)C(=O)N[C@@H](CC2CCCCC2)C(=O)NCCc2ccccc2)cc1` (stereo in doubt; form 1) showed a Ki of 366 nM.

As to `Cc1ccc(CCC[C@H](CP(=O)(O)O)C(=O)N[C@@H](CC2CCCCC2)C(=O)NCCc2ccccc2)cc1` (stereo in doubt; form 2), the Ki came out at 2.5 nM.

Another experiment concerns the target T1, Interstitial collagenase (Homo sapiens, UniProt P03956).
T1 sequence (P03956 whole entry): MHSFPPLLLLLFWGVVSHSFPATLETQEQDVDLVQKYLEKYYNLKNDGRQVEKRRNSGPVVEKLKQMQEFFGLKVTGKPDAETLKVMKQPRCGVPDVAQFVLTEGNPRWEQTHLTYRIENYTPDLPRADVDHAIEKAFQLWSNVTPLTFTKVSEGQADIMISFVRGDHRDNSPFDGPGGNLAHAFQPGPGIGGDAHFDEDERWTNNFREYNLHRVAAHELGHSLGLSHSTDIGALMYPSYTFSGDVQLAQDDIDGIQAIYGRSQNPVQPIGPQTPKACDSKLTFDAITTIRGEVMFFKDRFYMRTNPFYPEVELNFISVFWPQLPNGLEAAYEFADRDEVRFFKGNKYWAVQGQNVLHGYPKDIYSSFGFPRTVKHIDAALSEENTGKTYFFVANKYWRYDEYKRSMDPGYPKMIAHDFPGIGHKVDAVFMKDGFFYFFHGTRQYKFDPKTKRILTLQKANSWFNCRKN
In words: Inhibition of the Collagenase enzyme was determined from purified NSO cells.
Turning to `Cc1ccc(CCC[C@H](CC(=O)O)C(=O)N[C@@H](CC2CCCCC2)C(=O)NCCC(=O)O)cc1`, affinity was put at a Ki of 100000 nM.

`O=C(N[C@@H](CC1CCCCC1)C(=O)NCCN1CCOCC1)[C@H](CCCc1ccccc1)CP(=O)(O)O`: the inhibition constant Ki was determined as 100000 nM.

Regarding `Cc1ccc(CCC[C@H](CC(=O)O)C(=O)N[C@@H](CC2CCCCC2)C(=O)NCCCCN2CCOCC2)cc1`, the Ki was 55000 nM.

Regarding `NC(=O)[C@H](CC1CCCCC1)NC(=O)[C@H](CCCc1ccccc1)CC(=O)O`, affinity was put at a Ki of 100000 nM.

`O=C(O)CCNC(=O)[C@H](CC1CCCCC1)NC(=O)[C@H](CCCc1ccccc1)CP(=O)(O)O` returned a Ki of 22100 nM.

Take `Cc1ccc(CCC[C@H](CC(=O)O)C(=O)N[C@@H](CC2CCCCC2)C(=O)NCCc2ccccc2)cc1`: the Ki came to 22100 nM.

The molecule `COc1ccc(CCC[C@H](CC(=O)O)C(=O)N[C@@H](CC2CCCCC2)C(=O)NCCc2ccc(S(N)(=O)=O)cc2)cc1` returned a Ki of 10000 nM.

`NS(=O)(=O)c1ccc(CCNC(=O)[C@H](CC2CCCCC2)NC(=O)[C@H](CCCc2ccc(Cl)cc2)CC(=O)O)cc1` had a Ki of 55000 nM.

Take `NS(=O)(=O)c1ccc(CCNC(=O)[C@H](CC2CCCCC2)NC(=O)[C@H](CCCc2ccccc2)CC(=O)O)cc1`: the Ki was 40200 nM.

Consider `O=C(N[C@@H](CC1CCCCC1)C(=O)NCCc1ccccc1)[C@H](CCCc1ccccc1)CP(=O)(O)O`, for which the Ki turned out to be 25000 nM.

`COC(=O)CCNC(=O)[C@H](CC1CCCCC1)NC(=O)[C@H](CCCc1ccc(C)cc1)CC(=O)O` registered a Ki of 41400 nM.

Take `NC(=O)CCCNC(=O)[C@H](CC1CCCCC1)NC(=O)[C@H](CCCc1ccccc1)CC(=O)O`: the affinity, expressed as Ki, was 28400 nM.

`Cc1ccc(CCC[C@H](CC(=O)O)C(=O)N[C@@H](CC2CCCCC2)C(=O)NCCc2ccc(S(N)(=O)=O)cc2)cc1` had a Ki of 47800 nM.

On to `CC(C)Cc1ccc(CCC[C@H](CC(=O)O)C(=O)N[C@@H](CC2CCCCC2)C(=O)NCCc2ccccc2)cc1`, for which the Ki is more than 10000 nM.

`Cc1ccc(CCC[C@H](CP(=O)(O)O)C(=O)N[C@@H](CC2CCCCC2)C(=O)NCCc2ccccc2)cc1` (stereo in doubt; form 1) came in with a Ki of 100000 nM.

Consider `Cc1ccc(CCC[C@H](CP(=O)(O)O)C(=O)N[C@@H](CC2CCCCC2)C(=O)NCCc2ccccc2)cc1` (stereo in doubt; form 2), for which the Ki is 17000 nM.

The target in a further experiment is Stromelysin-1 (Homo sapiens, UniProt P08254). Nature of the experiment: Inhibition of the Stromelysin enzyme was determined from purified NSO cells.
Chain of Stromelysin-1 (P08254 whole entry): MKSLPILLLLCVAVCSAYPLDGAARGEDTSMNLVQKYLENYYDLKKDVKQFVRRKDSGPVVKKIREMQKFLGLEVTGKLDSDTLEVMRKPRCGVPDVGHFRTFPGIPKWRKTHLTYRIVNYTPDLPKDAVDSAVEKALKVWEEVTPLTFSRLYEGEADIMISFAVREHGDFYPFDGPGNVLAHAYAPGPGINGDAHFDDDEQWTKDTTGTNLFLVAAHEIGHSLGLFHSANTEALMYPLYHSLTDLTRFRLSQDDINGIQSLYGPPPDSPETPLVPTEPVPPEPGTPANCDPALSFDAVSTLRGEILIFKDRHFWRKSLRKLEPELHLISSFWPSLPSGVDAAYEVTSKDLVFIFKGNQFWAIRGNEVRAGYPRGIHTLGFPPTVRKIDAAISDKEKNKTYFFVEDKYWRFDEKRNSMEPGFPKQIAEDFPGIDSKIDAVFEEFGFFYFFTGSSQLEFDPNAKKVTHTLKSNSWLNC
On to `Cc1ccc(CCC[C@H](CC(=O)O)C(=O)N[C@@H](CC2CCCCC2)C(=O)NCCC(=O)O)cc1`, for which the Ki turned out to be 321 nM.

For `O=C(N[C@@H](CC1CCCCC1)C(=O)NCCN1CCOCC1)[C@H](CCCc1ccccc1)CP(=O)(O)O`, the Ki turned out to be 8400 nM.

As to `Cc1ccc(CCC[C@H](CC(=O)O)C(=O)N[C@@H](CC2CCCCC2)C(=O)NCCCCN2CCOCC2)cc1`, the Ki is 358 nM.

`NC(=O)[C@H](CC1CCCCC1)NC(=O)[C@H](CCCc1ccccc1)CC(=O)O` came in with an inhibitory constant (Ki) of 3120 nM.

In turn, `O=C(O)CCNC(=O)[C@H](CC1CCCCC1)NC(=O)[C@H](CCCc1ccccc1)CP(=O)(O)O` displayed a Ki of 952 nM.

Consider `Cc1ccc(CCC[C@H](CC(=O)O)C(=O)N[C@@H](CC2CCCCC2)C(=O)NCCc2ccccc2)cc1`, for which the Ki was determined as 472 nM.

Consider `COc1ccc(CCC[C@H](CC(=O)O)C(=O)N[C@@H](CC2CCCCC2)C(=O)NCCc2ccc(S(N)(=O)=O)cc2)cc1`, for which the Ki is 1110 nM.

With `NS(=O)(=O)c1ccc(CCNC(=O)[C@H](CC2CCCCC2)NC(=O)[C@H](CCCc2ccc(Cl)cc2)CC(=O)O)cc1`, affinity was put at a Ki of 358 nM.

As for `NS(=O)(=O)c1ccc(CCNC(=O)[C@H](CC2CCCCC2)NC(=O)[C@H](CCCc2ccccc2)CC(=O)O)cc1`, the affinity, expressed as Ki, was 952 nM.

For the molecule `O=C(N[C@@H](CC1CCCCC1)C(=O)NCCc1ccccc1)[C@H](CCCc1ccccc1)CP(=O)(O)O`, the Ki is 701 nM.

`COC(=O)CCNC(=O)[C@H](CC1CCCCC1)NC(=O)[C@H](CCCc1ccc(C)cc1)CC(=O)O` returned a Ki of 353 nM.

Molecule `NC(=O)CCCNC(=O)[C@H](CC1CCCCC1)NC(=O)[C@H](CCCc1ccccc1)CC(=O)O` yielded a Ki of 1060 nM.

The molecule `Cc1ccc(CCC[C@H](CC(=O)O)C(=O)N[C@@H](CC2CCCCC2)C(=O)NCCc2ccc(S(N)(=O)=O)cc2)cc1` yielded a Ki of 384 nM.

As for `CC(C)Cc1ccc(CCC[C@H](CC(=O)O)C(=O)N[C@@H](CC2CCCCC2)C(=O)NCCc2ccccc2)cc1`, the Ki was more than 10000 nM.

Consider `O=C(O)C[C@H](CCCc1ccccc1)C(=O)N[C@@H](CC1CCCCC1)C(=O)NCCc1ccccc1`, for which the Ki stood at 20000 nM.

`Cc1ccc(CCC[C@H](CP(=O)(O)O)C(=O)N[C@@H](CC2CCCCC2)C(=O)NCCc2ccccc2)cc1` (stereo in doubt; form 1) displayed a Ki of 21200 nM.

`Cc1ccc(CCC[C@H](CP(=O)(O)O)C(=O)N[C@@H](CC2CCCCC2)C(=O)NCCc2ccccc2)cc1` (stereo in doubt; form 2): the affinity, expressed as Ki, was 277 nM.

Usually Ki stands for the dissociation constant of the complex between target and ligand, obtained from inhibition or displacement. High values mean a looser hold on the target, low ones a stronger hold on the target.
